Measured values as given in publication PMC7496931, “Activation of Sirtuin 2 Inhibitors Employing Photoswitchable Geometry and Aqueous Solubility” (Chemmedchem, 2020).

Key:
[1] = UV/Vis spectra and half-life of thermal Z→E isomerization; type: physicochemical; design: k of thermal Z→E isomerization (non-linear regression): unit not given here; settings: for λΔ/max absorption maximum at thermal equilibrium: 50 μM in DMSO/assay buffer; for k of thermal Z→E isomerization (non-linear regression): 50 μM
Protocol: (§1) Photochemistry: All photoisomerization experiments were conducted under ruby light of 630 nm and total exclusion of daylight. Illumination was executed using a Bio‐Link 254 Crosslinker from Vilber‐Lourmat equipped with six Vilber‐Lourmat T8‐L lamps (8 W, 365 nm). Visible light radiation of 630 nm (ruby) and 452 nm (blue) was derived from a Paulmann FlexLED 3D strip. All compounds were irradiated in solution using spectrophotometric grade solvents. Photoisomerization and UV/Vis‐spectra measurement was conducted in quartz glass cuvettes (114‐QS, Hellma Analytics) at room temperature.
UV/Vis Spectra and Half-Life of Thermal Isomerization
The half-life of the thermal Z→E isomerization after 5 minutes of 365 nm irradiation was determined by UV/Vis-spectroscopy. Therefore, solutions of the respective compounds (50 µM) in 5%, 50% or 90% DMSO in enzyme assay buffer (v/v) were prepared. An initial spectrum of the thermal equilibrium was recorded. After 5 minutes of irradiation with 365 nm the increase of absorbance at the thermal equilibrium maximum (λ∆max) was recorded as exemplified by compound 15c (Figure S3). Absorbance at λ = λ ∆max was plotted as a function of time. Non-linear regression yielded the half-life of the thermal Z→E isomerization (Table S1). For extrapolation of the reaction kinetics, the plateau value was set to the initial absorbance at λ=λ∆max. The following equation was used for non-linear regression:
y = (y0 − Plateau)e−kx + Plateau
Figure S3: Left: UV-Vis spectrum of 15c (50 µM) in assay buffer (5% DMSO, v/v) at the thermal equilibrium (∆) and the photostationary state (PSS) after UV irradiation (365 nm). Right:
Absorbance of 15c (50 µm) in assay buffer (5% DMSO, v/v) at λ∆max = 328 nm after 5 minutes of UV (365 nm) irradiation.
(1 picture or pasted object on this page, not shown here)

[2] = Photoisomer distribution (PSD) by HPLC-ELSD; type: physicochemical; settings: for E/Z [%] PSD @ 365 nm / PSD after 365 nm radiation, share of the Z isomer: after 365 nm irradiation; for E/Z [%] PSD @ 365 nm / E/Z [%] PSD @ 452 nm: HPLC in MeOH/water, ELSD; for E/Z [%] PSD @ 452 nm: after 452 nm irradiation
Protocol: as §1

[3] = system: urinary bladder cancer cell line RT‐4; assay: Cell-based activity assay (western blot of acetylation levels); design: species or system human; settings: RT-4 cells, 50 μM, 24 h, compounds irradiated (365 nm) prior to incubation
Protocol: Reductive stability of 15 c, 15 f and 20 a in the presence of the cellular reductant glutathione (5 mM) was confirmed by HPLC analysis (Figure S5, Table S2). For the cell‐based activity assay, we illuminated the compounds solved in DMSO with UV light (365 nm) prior to incubation with the cells. […] As expected, 15 c and 15 f increased the levels of acetylated lysines H3K18 and H3K56, which are both affirmed substrates of Sirt2. In addition, we found H4K8 hyperacetylation even though this site is usually not affected by sirtuin catalysed deacetylation, indicating a further mode of action. […] In Figure 6, we show the relative results, whereby the acetylation product was related to total target protein and to the vehicle control. Again, we found an increase in acetylated histones induced by 15 c and 15 f which proves activity of these two compounds in living cells.
Figure 6 Relative acetylation levels of protein targets after incubation with compounds at 50 μM for 24 h in urinary bladder cancer cell line RT‐4 (mean of n=2). […]
Cell-Based Activity Assay
To qualify inhibitory activity of compounds on sirtuins we used the western blot technique.
Therefore, we used precast “Mini-Protean TGX Stain-Free Gels” and corresponding “Trans-Blot Turbo Transfer Pack Mini” PVDF membranes (Biorad, Germany). For sample preparation, […]
Sirt2 in our cell line stock (Data not shown), obtained from “Deutsche Sammlung von Mikroorganismen und Zellkulturen” (DSMZ), Germany. Cells were grown in RPMI 1640 cell medium supplemented with 10% fetal bovine serum and 1% penicillin/streptomycin purchased from PAN Biotec, Germany and stored in a humidified incubator at 37 °C with 5% CO2 atmosphere. For sample preparation, cells were harvested with Trypsin/EDTA and counted in a Beckman’s Coulter Counter. In six well plates, […] were seeded out in 3 mL medium and let allow to attach for 24 h. Stock solutions of compounds (1000-fold) were prepared with DMSO and illuminated with UV light (365 nm) for 5 min. Then, cells were exposed to compounds at a final concentration of 50 µM and incubated for 24 h. Cells were detached with Trypsin/EDTA and washed with phosphate buffered saline (PBS) by centrifugation at 500 g for 5 min and resuspended in PBS. Cell pellets were lysed with a lysis buffer containing Tris […]
and freshly added 1% protease inhibitor cocktail (Sigma Aldrich, Germany) on ice, followed by sonification for 30 minutes. The protein concentration was determined by the Bradford method against bovine serum albumin (BSA) as standard. Each slot of the precast gel was loaded with 30 µg protein followed by an electrophoretic separation and a transfer onto PVDF membranes.
Blots were blocked with 10% non-fat milk powder in Tris-buffered saline containing 20 mM Tris, 145 mM NaCl and Tween 0.5% (TBST) for 2 h and incubated with primary antibody in 1:1000 dilutions (in TBST and 1% BSA) over night at 4 °C. After washing procedure, blots were incubated with secondary antibody conjugated with horse radish peroxidase (1:5000 in TBST and 1% BSA) for 2 h. All used antibodies were obtained from cell signalling (UK): anti ac.H3K9 […]
anti ac.α-tubulin (#5335), anti α-tubulin (#2125) and anti rabbit-HRP (#7074). Target protein bands were detected with Clarity Western ECL Substrate (Biorad, Germany) and recorded at an Advanced Fluorescence Imager (INTAS, Germany). Band intensity was related to internal standard of the TGX Stain-Free gels as loading control.
In order to verify the conformations of Z-15c and Z-15f obtained from our molecular docking experiments, a two-dimensional dihedral analysis was performed using MOE with 3-(2-phenyldiazenyl)-pyridine as reference compound. Both dihedrals were rotated by 360° in 5° steps. At each step, the potential energy was calculated with AMBER force field parameters and AM1-BCC partial charges applied. The diazenyl double bond of both compounds is nearly […]

[4] = 50 % DMSO (v/v) in assay buffer
[5] = 90 % DMSO (v/v) in assay buffer

Row | SMILES | λΔ/max absorption maximum at thermal equilibrium ([1]; 50 % DMSO (v/v)) [nm] | k of thermal Z→E isomerization (non-linear regression) [1, 4] | E/Z [%] PSD @ 365 nm [2] | E/Z [%] PSD @ 452 nm [2] | melting point | further results
1 | Cc1cc(/N=N/c2cncc(C(N)=O)c2)cc(C)c1NC(=O)c1ccccc1 [9 h] | 337 | 0.9524 | 14/86 | 91/9 | 267 °C (dec.) | –
2 | CC(=O)Nc1c(C)cc(/N=N/c2cncc(C(N)=O)c2)cc1C [9 a] | – | – | – | – | – | λΔ/max absorption maximum at thermal equilibrium ([1]; 5 % DMSO (v/v)): 329 nm; k of thermal Z→E isomerization (non-linear regression) ([1]; 5 % DMSO (v/v) in assay buffer): 0.1176
3 | Cc1cc(/N=N/c2cncc(C(N)=O)c2)cc(C)c1NC(=O)c1ccc(F)cc1 [9 i] | 337 | 1.193 | 12/88 | 91/9 | – | –
4 | CCCCCC(=O)Nc1c(C)cc(/N=N/c2cncc(C(N)=O)c2)cc1C [9 c] | 339 | 0.043 | 9/91 | 87/13 | – | –
5 | NC(=O)c1cncc(OCc2cccc(/N=N/c3ccc(F)cc3)c2)c1 [20 b] | 324 | – | 2/98 | 83/17 | 202.1 °C | –
6 | CCCCCCCCCCCC(=O)Nc1c(C)cc(/N=N/c2cncc(C(N)=O)c2)cc1C [9 f] | – | – | 10/90 | 91/9 | – | λΔ/max absorption maximum at thermal equilibrium ([1]; 90 % DMSO (v/v)): 346 nm; k of thermal Z→E isomerization (non-linear regression) [1, 5]: 0.03286
7 | Cc1cc(/N=N/c2cncc(C(N)=O)c2)cc(C)c1NC(=O)c1ccc(-c2cccs2)cc1 [9 j] | 330 | 1.212 | 29/71 | 93/7 | 306.5 °C (dec.) | –
8 | NC(=O)c1cncc(OCc2cccc(/N=N/c3ccc(OCc4ccccc4)cc3)c2)c1 [20 a] | 352 | 0.0207 | 4/96 | 80/20 | – | acetylation level of α-tubulin [3]: none of the compounds influenced; activity regarding the examined substrates (acetylation) [3]: did not exert any activity; expression of total histone H3 [3]: no effect; expression of total α-tubulin protein [3]: no effect; total H4 [3]: slight increase
9 | CCCCCCCCCCCCCC(=O)Nc1c(C)cc(/N=N/c2cncc(C(N)=O)c2)cc1C [9 g] | – | – | 14/86 | 87/13 | 254.1 °C | λΔ/max absorption maximum at thermal equilibrium ([1]; 90 % DMSO (v/v)): 345 nm; k of thermal Z→E isomerization (non-linear regression) [1, 5]: 0.02709
10 | CCCC(=O)Nc1c(C)cc(/N=N/c2cncc(C(N)=O)c2)cc1C [9 b] | – | – | 10/90 | 86/14 | – | λΔ/max absorption maximum at thermal equilibrium ([1]; 5 % DMSO (v/v)): 332 nm; k of thermal Z→E isomerization (non-linear regression) ([1]; 5 % DMSO (v/v) in assay buffer): 0.08608
11 | Cc1cc(/N=N/c2cncc(C(N)=O)c2)cc(C)c1NC(=O)C12CC3CC(CC(C3)C1)C2 [9 k] | 339 | 0.1022 | 14/86 | 89/11 | – | –
12 | CCCCCCCC(=O)Nc1c(C)cc(/N=N/c2cncc(C(N)=O)c2)cc1C [9 d] | – | – | 9/91 | 88/12 | – | λΔ/max absorption maximum at thermal equilibrium ([1]; 90 % DMSO (v/v)): 345 nm; k of thermal Z→E isomerization (non-linear regression) [1, 5]: 0.03293
13 | Cc1cc(/N=N/c2cncc(C(N)=O)c2)cc(C)c1N [7 f] | – | – | – | – | 255 °C | –
14 | CCCCCCCCCC(=O)Nc1c(C)cc(/N=N/c2cncc(C(N)=O)c2)cc1C [9 e] | – | – | 10/90 | 90/10 | – | λΔ/max absorption maximum at thermal equilibrium ([1]; 90 % DMSO (v/v)): 344 nm; k of thermal Z→E isomerization (non-linear regression) [1, 5]: 0.03173

Continued, in another order:

Row | λΔ/max absorption maximum at thermal equilibrium ([1]; 50 % DMSO (v/v)) [nm] | k of thermal Z→E isomerization (non-linear regression) [1, 4] | E/Z [%] PSD @ 365 nm [2] | E/Z [%] PSD @ 452 nm [2] | melting point | SMILES | further results
15 | – | – | 9/91 | 91/9 | – | NC(=O)c1cncc(/N=N/c2ccc(Br)cc2)c1 [15 d] | λΔ/max absorption maximum at thermal equilibrium ([1]; 5 % DMSO (v/v)): 332 nm; k of thermal Z→E isomerization (non-linear regression) ([1]; 5 % DMSO (v/v) in assay buffer): 0.003156
16 | 325 | 0.003905 | 31/69 | 94/6 | – | CC(C)(C)OC(=O)c1ccc(/N=N/c2cncc(C(N)=O)c2)cc1 [15 a] | PSD after 365 nm radiation, share of the Z isomer [2]: 60–70%
17 | 350 | 0.00906 | 23/77 | 92/8 | 223.3 °C | CC(C)(O)C#Cc1ccc(/N=N/c2cncc(C(N)=O)c2)cc1 [15 h] | –
18 | 326 | 0.002728 | 40/60 | 89/11 | – | CCCCNC(=O)c1ccc(/N=N/c2cncc(C(N)=O)c2)cc1 [15 e] | PSD after 365 nm radiation, share of the Z isomer [2]: 60–70%
19 | – | – | – | – | 260 °C | NC(=O)c1cncc(/N=N/c2c(O)ccc3ccccc23)c1 [7 c] | –
20 | 355 | 0.0139 | 25/75 | 89/11 | – | NC(=O)c1cncc(/N=N/c2ccc(C#CCCCCO)cc2)c1 [15 g] | –
21 | 332 | 0.02959 | 6/94 | 90/10 | – | CC(C)(C)OC(=O)Cc1ccc(/N=N/c2cncc(C(N)=O)c2)cc1 [15 b] | –
22 | 340 | – | – | – | – | C#Cc1ccc(/N=N/c2cccc(COc3cncc(C(N)=O)c3)c2)cc1 [20 c] | –
